From the supplement of paper PMC10307832

Assays:
Assay in all cases: relative viability (nuclei count vs DMSO), 5 days (fraction); higher = more cells survive
[1] = compound: CC(=O)Nc1cccc(-n2c(=O)n(C3CC3)c(=O)c3c(Nc4ccc(I)cc4F)n(C)c(=O)c(C)c32)c1 [Trametinib] + N=C(N)NC(=N)NCCc1ccccc1 [Phenformin] (partner 250 µM)
In short: (§1)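 Dosing by pin tool came one day after lung cancer cell lines were seeded in 1536-well plates, using either one drug or a fixed anchor-drug dose plus five library-drug doses (not always all listed) in √10 steps. After 5 days, nuclei were counted on 4× images. Relative viability is treated-well nuclei count divided by vehicle-well nuclei count, and values are medians of duplicate plates.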

[2] = compound: CC(=O)Nc1cccc(-n2c(=O)n(C3CC3)c(=O)c3c(Nc4ccc(I)cc4F)n(C)c(=O)c(C)c32)c1 [Trametinib] + NC(=O)Nc1cc(-c2cccc(F)c2)sc1C(=O)N[C@H]1CCCNC1 [AZD7762] (partner 0.2 µM)
In short: as §1

[3] = compound: CN1C=C(C2=CC=CC=C21)/C=C\3/C4=C(C=CC=N4)NC3=O + CS(=O)(=O)CCNCc1ccc(-c2ccc3ncnc(Nc4ccc(OCc5cccc(F)c5)c(Cl)c4)c3c2)o1 [Lapatinib] (partner 2 µM)
In short: as §1

[4] = compound: CN1C=C(C2=CC=CC=C21)/C=C\3/C4=C(C=CC=N4)NC3=O + Nc1nc2[nH]cc(CCc3ccc(C(=O)N[C@@H](CCC(=O)O)C(=O)O)cc3)c2c(=O)[nH]1 [Pemetrexed] (partner 0.2 µM)
In short: as §1

Cell Line	relative viability ([1]; first compound 0.0025 µM)	relative viability ([1]; first compound 0.007906 µM)	relative viability ([1]; first compound 0.025 µM)	relative viability ([1]; first compound 0.07906 µM)	relative viability ([1]; first compound 0.25 µM)	relative viability ([2]; first compound 0.0025 µM)	relative viability ([2]; first compound 0.007906 µM)	relative viability ([2]; first compound 0.025 µM)	relative viability ([2]; first compound 0.07906 µM)	relative viability ([2]; first compound 0.25 µM)	relative viability ([3]; first compound 0.02 µM)	relative viability ([3]; first compound 0.06325 µM)	relative viability ([3]; first compound 0.6325 µM)	relative viability ([3]; first compound 2 µM)	relative viability ([4]; first compound 0.02 µM)	relative viability ([4]; first compound 0.06325 µM)	relative viability ([4]; first compound 0.6325 µM)	relative viability ([4]; first compound 2 µM)	relative viability ([3]; first compound 0.2 µM)	relative viability ([4]; first compound 0.2 µM)
NCI-H650	0.532	0.52	0.501	0.426	0.403	1.06	1.15	1.03	0.614	0.655	0.824	0.738	0.754	0.82	0.934	0.875	0.805	0.918		
IA-LM											0.947	0.617	0.65	0.448					0.546	
A-427	0.234	0.286	0.22	0.207	0.137	0.662	0.573	0.525	0.373	0.371	0.972	1.04	0.998	1.07	0.981	0.973	0.94	0.983		
NCI-H2347	0.225	0.125	0.233	0.164	0.143	0.642	0.41	0.296	0.29	0.296	0.953	1.02	0.793	0.881	0.445	0.454	0.423	0.426	0.876	0.444
NCI-H1793	0.329	0.314	0.283	0.176	0.219	0.44	0.466	0.252	0.335	0.264	0.912	0.787	0.448	0.799	0.876	1.11	0.785	0.988	0.646	0.73
NCI-H1651	0.26	0.293	0.296	0.288	0.182	0.454	0.427	0.352	0.439	0.186	1.02	1.09	0.836	1.09	0.651	0.579	0.648	0.644	0.761	0.574
HCC-78	0.678	0.501	0.482	0.489	0.401	0.661	0.484	0.393	0.427	0.46	0.965	0.288	0.53	0.689	0.907	0.945	0.903	0.913	0.46	0.951
NCI-H23	0.782	0.738	0.312	0.583	0.303	0.256	0.233	0.232	0.158	0.191	0.926	0.952	0.892	0.991	0.678	0.598	0.788	0.654		0.576
LOU-NH91	0.685	0.752	0.661	0.364	0.294	0.769	0.704	0.704	0.676	0.548	0.578	0.577	0.601	0.668	0.368	0.387	0.348	0.372	0.59	0.365
LXF-289	0.503	0.451	0.444	0.422	0.263	0.994	0.906	0.818	0.71	0.534	0.889	0.882	0.911	0.884	0.925	0.913	0.881	0.974	0.905	0.928
NCI-H460	0.502	0.332	0.237	0.135	0.041	0.731	0.751	0.739	0.505	0.338	1.11	1.06		1.23	0.0583	0.0649	0.0702	0.0616	1.09	0.0603
NCI-H1792	0.309	0.206	0.071	0.157	0.0553	0.682	0.552	0.24	0.26	0.133	0.588	0.96		0.672	1.06	0.813	0.74	0.825	0.8	0.496
EMC-BAC-2	0.582	0.565	0.443	0.475	0.31	1.19	1.14	0.994	0.932	0.757	0.883	0.91	0.836	0.921	0.407	0.438	0.465	0.421	0.934	0.442
CAL-12T	0.457	0.376	0.295	0.267	0.229	0.642	0.61	0.619	0.536	0.483	0.652	0.625	0.717	0.839	1.1	1.13	1.34	1.34	0.574	1.21
ChaGo-K-1	0.413	0.444	0.492	0.414	0.317	0.909	0.859	0.793	0.781	0.807					0.252	0.255	0.269	0.245		0.241
COR-L 105	0.421	0.354	0.293	0.277	0.213						0.33	0.334	0.344	0.397	1.07	0.969	1.28	1.3	0.362	1.12
NCI-H1944	0.187	0.159	0.152	0.148	0.137	0.511	0.39	0.344	0.366	0.311	0.719	0.743	0.759	0.727	0.549	0.558	0.617	0.652		
NCI-H2009	0.394	0.302	0.231	0.213	0.215						0.996	0.965	0.947	0.898	1.02	0.947	1.02	1.02	1.02	1.06
SW 900	0.579	0.532	0.457	0.487	0.143	0.666	0.518	0.575	0.47	0.268					0.474		0.512	0.486		
NCI-H441	0.744	0.836	0.501	0.561	0.252	1.15	0.972	0.734	0.658	0.618					0.275	0.241	0.285	0.251		0.264
NCI-H1623	0.588	0.48	0.291	0.396	0.634															

Cell Line	relative viability ([1]; first compound 0.0025 µM)	relative viability ([1]; first compound 0.007906 µM)	relative viability ([1]; first compound 0.025 µM)	relative viability ([1]; first compound 0.07906 µM)	relative viability ([1]; first compound 0.25 µM)	relative viability ([2]; first compound 0.0025 µM)	relative viability ([2]; first compound 0.007906 µM)	relative viability ([2]; first compound 0.025 µM)	relative viability ([2]; first compound 0.07906 µM)	relative viability ([2]; first compound 0.25 µM)	relative viability ([3]; first compound 0.02 µM)	relative viability ([3]; first compound 0.06325 µM)	relative viability ([3]; first compound 0.6325 µM)	relative viability ([3]; first compound 2 µM)	relative viability ([4]; first compound 0.02 µM)	relative viability ([4]; first compound 0.06325 µM)	relative viability ([4]; first compound 0.6325 µM)	relative viability ([4]; first compound 2 µM)	relative viability ([3]; first compound 0.2 µM)	relative viability ([4]; first compound 0.2 µM)
LCLC-103H	0.319	0.349	0.318	0.269	0.307	0.835	0.69	0.611	0.758	0.644					0.455	0.455	0.482	0.462		0.483
COR-L23	0.479	0.437	0.384	0.388	0.269						0.973	0.92	0.923	1.12	0.197	0.189	0.18	0.19	1.16	0.209
SK-MES-1	0.64	0.64	0.481	0.43	0.287						0.451	0.427	0.454	0.428	0.846	0.856	0.954	0.852	0.447	0.687
NCI-H727	0.32	0.359	0.406	0.257	0.264	0.356	0.386	0.315	0.279	0.355	0.757	0.688	0.914	0.767					0.428	
NCI-H520	0.543	0.666	0.392	0.608	0.199						0.741	0.86	0.981	0.937	0.67	0.53	0.672	0.732	0.841	0.698
SW 1573	0.29	0.279	0.255	0.156	0.15						1.17	0.905	1.07	1.18	0.785	0.806	0.93	0.906	0.921	0.788
NCI-H2023	0.34	0.393	0.349	0.289	0.167						0.709	0.739	0.652	0.684	0.274	0.171	0.25	0.2	0.222	
SK-LU-1	0.482	0.501	0.288	0.246	0.164						0.662	0.788	0.886	1.2	0.736	0.919	1.03	0.946	0.854	0.898
ABC-1	0.236	0.259	0.226	0.213	0.221	0.801	0.756	0.562	0.555	0.915	1.39	1.16	1.25	1.28					1.12	
EBC-1											0.197	0.201	0.232	0.2					0.177	
NCI-H1703						0.141	0.126	0.144	0.101	0.112	0.962	0.941	1.25	1.29					1.11	
NCI-H1563	0.637	0.636	0.676	0.597	0.59						1.2	0.977	0.926	1.02	0.827	0.694	0.665	0.752	0.912	0.703
NCI-H2228	0.319	0.225	0.152	0.161	0.138						1.24	0.88	1.02	0.972	0.337	0.305	0.372	0.365		0.349
NCI-H1299											0.979	0.974	1.03	0.979					0.989	
A549	0.166	0.153	0.125	0.116	0.058						1.08	0.873	0.932	1.05					0.91	
NCI-H522	0.575	0.657	0.506	0.574	0.434	0.875	1.01	0.703	0.69	0.88					0.743	0.775	1.1	0.998		0.878
NCI-H1650	0.388	0.538	0.495	0.325	0.151						0.854	0.793	0.768	0.842	0.39	0.352	0.384	0.328	0.574	0.371
NCI-H1648						0.69	0.716	0.879	0.78	0.441					0.729	0.777	0.691	0.739		0.922
NCI-H661	0.298	0.289	0.257	0.28	0.246						0.601	0.574	0.427	0.54	1.02	0.902	0.985	0.972	0.46	0.89
NCI-H2342	0.49	0.549		0.403	0.56	0.487	0.437	0.318	0.411	0.559					0.704	0.747	0.756	0.767		0.736
Calu-6											1.15	1	0.968	1.01					1	
